Laboratory results from patent US4604239A, “Antibiotics” (Eli Lilly and Company, priority 1985, dated 1986).
Read-outs that look alike come from different tables or passages of the source.

Tests used:
[1] = tested on: Staphylococcus aureus; assay: agar-dilution MIC; type: cell-based; conditions: in µg/mL
[2] = tested on: Hemophilus influenzae; assay: agar-dilution MIC; type: cell-based; conditions: Table 17
[3] = tested on: Bacteroides fragilis; assay: agar-dilution MIC; type: cell-based
From the text: (§1) The agar-dilution procedure described by the International Collaborative study (ICS) group was used to determine the minimum inhibitory concentrations (MIC's).

[4] = tested on: Staphylococcus epidermidis; assay: agar-dilution MIC; type: cell-based; conditions: Staphylococcus epidermidis EPI1; Table 17
From the text: as §1

[5] = tested on: Streptococcus pneumoniae; assay: agar-dilution MIC; type: cell-based; conditions: Streptococcus pneumoniae Park I; Table 17
From the text: as §1

[6] = tested on: Streptococcus pyogenes; assay: agar-dilution MIC; type: cell-based; conditions: Streptococcus pyogenes C203; Table 17
From the text: as §1

[7] = tested on: Streptococcus sp. (Group D); assay: agar-dilution MIC; type: cell-based; conditions: Table 17
From the text: as §1

[8] = tested on: Bacteroides thetaiotaomicron; type: cell-based
From the text: as §1

[9] = tested on: Propionibacterium acnes; assay: agar-dilution MIC; type: cell-based
From the text: Antibiotic A41030 factors A, B and C have also been tested and found to be active against a genus of anaerobic bacteria identified as Propionibacterium acnes.

[10] = tested on: Clostridium difficile; type: cell-based
[11] = tested on: Clostridium septicum; assay: agar-dilution MIC; type: cell-based; conditions: Clostridium septicum 1128; Table 14
[12] = tested on: Peptococcus asaccharolyticus; assay: agar-dilution MIC; type: cell-based
Procedure: (§2) The MIC values were determined by the agar-dilution method, and are recorded in Table 15, which follows.

[13] = tested on: Peptococcus constellatus; assay: agar-dilution MIC; type: cell-based; conditions: Pc. constellatus 1468; Table 15
Procedure: as §2

[14] = tested on: Peptococcus magnus; assay: agar-dilution MIC; type: cell-based; conditions: Table 15
Procedure: as §2

[15] = tested on: Peptococcus prevoti; assay: agar-dilution MIC; type: cell-based; conditions: Table 15
Procedure: as §2

[16] = tested on: Peptostreptococcus anaerobius; assay: agar-dilution MIC; type: cell-based
[17] = tested on: Bacteroides melaninogenicus; assay: agar-dilution MIC; type: cell-based; conditions: Bacteroides melaninogenicus 2736; Table 14
[18] = tested on: Fusobacterium necrophorum; assay: agar-dilution MIC; type: cell-based; conditions: Fusobacterium necrophorum 6054A; Table 14
[19] = tested on: S. pyogenes; assay: experimental bacterial infection in mice; type: in vivo; conditions: against S. pyogenes in mice; oral
[20] = solubility; type: physicochemical
[21] = tested on: Bacteroides corrodens; assay: agar-dilution MIC; type: cell-based; conditions: Bacteroides corrodens 1874; Table 14

**Q.** What does the source list for A41030 factor C?
**A.** MIC [1]: 1; MIC ([2]; Haemophilus influenzae 251): 4 µg/mL; MIC ([2]; Haemophilus influenzae Brun): 16 µg/mL; MIC ([3]; B. fragilis 2, 24-hour, Table 12): 32 µg/mL; MIC ([3]; B. fragilis 9, 24-hour, Table 12): 32 µg/mL; MIC ([3]; B. fragilis 103, 24-hour, Table 12): 32 µg/mL; MIC ([3]; B. fragilis 104, 24-hour, Table 12): 32 µg/mL; MIC ([3]; B. fragilis 106, 24-hour, Table 12): 32 µg/mL; MIC ([3]; B. fragilis 107, 24-hour, Table 12): 32 µg/mL; MIC ([3]; B. fragilis 108, 24-hour, Table 12): 64 µg/mL; MIC ([3]; B. fragilis 110, 24-hour, Table 12): 64 µg/mL; MIC ([3]; B. fragilis 111, 24-hour, Table 12): 32 µg/mL; MIC ([3]; B. fragilis 112, 24-hour, Table 12): 32 µg/mL; MIC ([3]; B. fragilis 113, 24-hour, Table 12): 32 µg/mL; MIC ([3]; B. fragilis 1451, 24-hour, Table 12): 64 µg/mL; MIC ([3]; B. fragilis 1470, 24-hour, Table 12): 64 µg/mL; MIC ([3]; B. fragilis 1877, 24-hour, Table 12): 32 µg/mL; MIC ([3]; B. fragilis 9032, 24-hour, Table 12): 32 µg/mL; MIC ([3]; Bacteroides fragilis 1877, Table 14): 16 µg/mL; MIC ([3]; Bacteroides fragilis 1936B, Table 14): 32 µg/mL; MIC [4]: 0.5 µg/mL; MIC [5]: 1 µg/mL; MIC [6]: 1 µg/mL; MIC ([7]; Streptococcus sp. Group D 9960): 4 µg/mL; MIC ([7]; Streptococcus sp. Group D X66): 2 µg/mL; MIC ([8]; B. thetaiotaomicron 1438, 24-hour, Table 12): 32 µg/mL; MIC ([8]; Bacteroides thetaiotaomicron 1438, Table 14): 64 µg/mL; MIC ([9]; P. acnes 104, 24-hour, Table 13): 0.25 µg/mL; MIC ([9]; P. acnes 5170, 24-hour, Table 13): ≤ 0.03 µg/mL; MIC ([9]; P. acnes 5176, 24-hour, Table 13): ≤ 0.03 µg/mL; MIC ([9]; P. acnes 5187, 24-hour, Table 13): 0.06 µg/mL; MIC ([9]; P. acnes 5197, 24-hour, Table 13): ≤ 0.03 µg/mL; MIC ([9]; P. acnes 5227, 24-hour, Table 13): 0.06 µg/mL; MIC ([9]; P. acnes 5228, 24-hour, Table 13): 1.0 µg/mL; MIC ([9]; P. acnes 5229, 24-hour, Table 13): 0.5 µg/mL; MIC ([9]; P. acnes 5246, 24-hour, Table 13): 0.06 µg/mL; MIC ([9]; P. acnes 5292, 24-hour, Table 13): 0.06 µg/mL; MIC ([9]; Propionibacterium acnes 79, Table 14): ≤ 0.25 µg/mL; MIC ([10]; Clostridium difficile 78, Table 16): 1.0 µg/mL; MIC ([10]; Clostridium difficile 107B, Table 16): 1.0 µg/mL; MIC ([10]; Clostridium difficile 111F, Table 16): 2 µg/mL; MIC ([10]; Clostridium difficile 1153, Table 16): 2 µg/mL; MIC ([10]; Clostridium difficile 2634, Table 16): 2 µg/mL; MIC ([10]; Clostridium difficile 2994, Table 14): 16 µg/mL; MIC ([10]; Clostridium difficile 3424-5B, Table 16): 1.0 µg/mL; MIC ([10]; Clostridium difficile 3816, Table 16): 2 µg/mL; MIC ([10]; Clostridium difficile 3950D, Table 16): 2 µg/mL; MIC ([10]; Clostridium difficile 6890, Table 16): 2 µg/mL; MIC ([10]; Clostridium difficile 8484, Table 16): 1.0 µg/mL; MIC ([10]; Clostridium difficile A-194, Table 16): 2 µg/mL; MIC ([10]; Clostridium difficile A-195, Table 16): 1.0 µg/mL; MIC ([10]; Clostridium difficile A-196, Table 16): 2 µg/mL; MIC ([10]; Clostridium difficile A-279, Table 16): 2 µg/mL; MIC ([10]; Clostridium difficile A-280, Table 16): 1.0 µg/mL; MIC ([10]; Clostridium difficile A-281, Table 16): 2 µg/mL; MIC ([10]; Clostridium difficile WAL-2112, Table 16): 2 µg/mL; MIC ([10]; Clostridium difficile WAL-3657, Table 16): 2 µg/mL; MIC ([10]; Clostridium difficile WAL-4268, Table 16): 1.0 µg/mL; MIC [11]: 8 µg/mL; MIC ([12]; Pc. asaccharolyticus 1344, Table 15): 1.0 µg/mL; MIC ([12]; Peptococcus asaccharolyticus 1302, Table 14): ≤ 0.25 µg/mL; MIC [13]: 0.5 µg/mL; MIC ([14]; Pc. magnus 1401): 0.25 µg/mL; MIC ([14]; Pc. magnus 1421): 0.25 µg/mL; MIC ([14]; Pc. magnus 1477): 0.5 µg/mL; MIC ([15]; Pc. prevoti 1293): 0.5 µg/mL; MIC ([15]; Pc. prevoti 1407): 1.0 µg/mL; MIC ([16]; Peptostreptococcus anaerobius 1428, Table 14): ≤ 0.25 µg/mL; MIC ([16]; Ps. anaerobius 52, Table 15): 0.25 µg/mL; MIC ([16]; Ps. anaerobius 59, Table 15): 0.25 µg/mL; MIC ([16]; Ps. anaerobius 1418, Table 15): ≤ 0.03 µg/mL; MIC ([16]; Ps. anaerobius 1428, Table 15): 0.25 µg/mL; MIC ([16]; Ps. anaerobius 1451, Table 15): 0.25 µg/mL; MIC ([16]; Ps. anaerobius 1477, Table 15): 0.25 µg/mL; MIC [17]: 4 µg/mL; MIC [18]: 16 µg/mL; in vivo oral activity [19]: > 300 mg./kg. X 2; solubility (solvents) [20]: soluble in the same solvents as factor A; MIC [21]: 32 µg/mL
